According to the CheMixHub ionic liquid set:

Test: xn = mol fraction of the nth substance listed
Settings: 308.15 K, 101 kPa

Cc1ncc(C[n+]2csc(CCO)c2C)c(N)n1.Cl.[Cl-] + CCCCCCCCCCCCOS(=O)(=O)[O-].[Na+] + O
Settings	electrical conductivity [S/m]
x2 = 0, x1 = 1.8e-07	0.00293
x2 = 0, x1 = 9e-07	0.00544
x2 = 0, x1 = 1.8e-06	0.00836
x2 = 7.35e-06, x1 = 1.8e-07	0.00693
x2 = 7.35e-06, x1 = 9e-07	0.00954
x2 = 7.35e-06, x1 = 1.8e-06	0.0129
x2 = 1.463e-05, x1 = 1.8e-07	0.0109
x2 = 1.463e-05, x1 = 9e-07	0.0135
x2 = 1.463e-05, x1 = 1.8e-06	0.0172
x2 = 2.18e-05, x1 = 1.8e-07	0.0147
x2 = 2.18e-05, x1 = 9e-07	0.0175
x2 = 2.18e-05, x1 = 1.8e-06	0.0213
x2 = 2.901e-05, x1 = 1.8e-07	0.0186
x2 = 2.901e-05, x1 = 9e-07	0.0215
x2 = 2.901e-05, x1 = 1.8e-06	0.0254
x2 = 3.604e-05, x1 = 1.8e-07	0.0224
x2 = 3.604e-05, x1 = 9e-07	0.0254
x2 = 3.604e-05, x1 = 1.8e-06	0.0296
x2 = 4.307e-05, x1 = 1.8e-07	0.026
x2 = 4.307e-05, x1 = 9e-07	0.0293
x2 = 4.307e-05, x1 = 1.8e-06	0.0336
x2 = 4.991e-05, x1 = 1.8e-07	0.0297
x2 = 4.991e-05, x1 = 9e-07	0.0331
x2 = 4.991e-05, x1 = 1.8e-06	0.0376
x2 = 5.676e-05, x1 = 1.8e-07	0.0333
x2 = 5.676e-05, x1 = 9e-07	0.0367
x2 = 5.676e-05, x1 = 1.8e-06	0.0416
x2 = 6.361e-05, x1 = 1.8e-07	0.037
x2 = 6.361e-05, x1 = 9e-07	0.0404
x2 = 6.361e-05, x1 = 1.8e-06	0.0455
x2 = 7.027e-05, x1 = 1.8e-07	0.0405
x2 = 7.027e-05, x1 = 9e-07	0.0441
x2 = 7.028e-05, x1 = 1.8e-06	0.0493
x2 = 7.694e-05, x1 = 1.8e-07	0.044
x2 = 7.694e-05, x1 = 9e-07	0.0477
x2 = 7.694e-05, x1 = 1.8e-06	0.0529
x2 = 8.361e-05, x1 = 1.8e-07	0.0473
x2 = 8.361e-05, x1 = 9e-07	0.0513
x2 = 8.361e-05, x1 = 1.8e-06	0.0564
x2 = 9.009e-05, x1 = 1.8e-07	0.0507
x2 = 9.009e-05, x1 = 9e-07	0.0547
x2 = 9.009e-05, x1 = 1.8e-06	0.0597
x2 = 9.658e-05, x1 = 1.8e-07	0.054
x2 = 9.658e-05, x1 = 9e-07	0.0581
x2 = 9.658e-05, x1 = 1.8e-06	0.0627
x2 = 0.0001031, x1 = 1.8e-07	0.0571
x2 = 0.0001031, x1 = 9e-07	0.0612
x2 = 0.0001031, x1 = 1.8e-06	0.0656
x2 = 0.0001094, x1 = 1.8e-07	0.0601
x2 = 0.0001094, x1 = 9e-07	0.0641
x2 = 0.0001094, x1 = 1.8e-06	0.0684
x2 = 0.0001157, x1 = 1.8e-07	0.0629
x2 = 0.0001157, x1 = 9e-07	0.0668
x2 = 0.0001157, x1 = 1.8e-06	0.071
x2 = 0.000122, x1 = 1.8e-07	0.0658
x2 = 0.000122, x1 = 9e-07	0.0696
x2 = 0.000122, x1 = 1.8e-06	0.0734
x2 = 0.0001281, x1 = 1.8e-07	0.0684
x2 = 0.0001281, x1 = 9e-07	0.0725
x2 = 0.0001281, x1 = 1.8e-06	0.0755
x2 = 0.0001342, x1 = 1.8e-07	0.0709
x2 = 0.0001342, x1 = 9e-07	0.0746
x2 = 0.0001342, x1 = 1.8e-06	0.0776
x2 = 0.0001404, x1 = 1.8e-07	0.0732
x2 = 0.0001404, x1 = 9e-07	0.0766
x2 = 0.0001404, x1 = 1.8e-06	0.0797
x2 = 0.0001465, x1 = 1.8e-07	0.0752
x2 = 0.0001465, x1 = 9e-07	0.0783
x2 = 0.0001465, x1 = 1.8e-06	0.0817
x2 = 0.0001524, x1 = 1.8e-07	0.077
x2 = 0.0001524, x1 = 9e-07	0.08
x2 = 0.0001524, x1 = 1.8e-06	0.0836
x2 = 0.0001584, x1 = 1.8e-07	0.0786
x2 = 0.0001584, x1 = 9e-07	0.0816
x2 = 0.0001584, x1 = 1.8e-06	0.0855
x2 = 0.0001641, x1 = 1.8e-07	0.0802
x2 = 0.0001641, x1 = 9e-07	0.0831
x2 = 0.0001641, x1 = 1.8e-06	0.0874
x2 = 0.0001699, x1 = 1.8e-07	0.0817
x2 = 0.0001699, x1 = 9e-07	0.0846
x2 = 0.0001699, x1 = 1.8e-06	0.0893
x2 = 0.0001757, x1 = 1.8e-07	0.083
x2 = 0.0001757, x1 = 9e-07	0.086
x2 = 0.0001757, x1 = 1.8e-06	0.091
x2 = 0.0001814, x1 = 1.8e-07	0.0843
x2 = 0.0001814, x1 = 9e-07	0.0874
x2 = 0.0001814, x1 = 1.8e-06	0.0928
x2 = 0.000187, x1 = 1.8e-07	0.0855
x2 = 0.000187, x1 = 9e-07	0.0887
x2 = 0.000187, x1 = 1.8e-06	0.0946
x2 = 0.0001928, x1 = 1.8e-07	0.0867
x2 = 0.0001928, x1 = 9e-07	0.09
x2 = 0.0001928, x1 = 1.8e-06	0.0964
x2 = 0.0001982, x1 = 1.8e-07	0.0879
x2 = 0.0001982, x1 = 9e-07	0.0912
x2 = 0.0001982, x1 = 1.8e-06	0.0982
x2 = 0.0002038, x1 = 1.8e-07	0.089
x2 = 0.0002038, x1 = 9e-07	0.0924
x2 = 0.0002038, x1 = 1.8e-06	0.0997
x2 = 0.0002092, x1 = 1.8e-07	0.0901
x2 = 0.0002092, x1 = 9e-07	0.0936
x2 = 0.0002092, x1 = 1.8e-06	0.101
x2 = 0.0002147, x1 = 1.8e-07	0.0913
x2 = 0.0002148, x1 = 9e-07	0.0949
x2 = 0.0002148, x1 = 1.8e-06	0.102
x2 = 0.00022, x1 = 1.8e-07	0.0925
x2 = 0.00022, x1 = 9e-07	0.0961
x2 = 0.00022, x1 = 1.8e-06	0.104
x2 = 0.0002254, x1 = 1.8e-07	0.0937
x2 = 0.0002254, x1 = 9e-07	0.0974
x2 = 0.0002254, x1 = 1.8e-06	0.105
x2 = 0.0002306, x1 = 1.8e-07	0.0949
x2 = 0.0002306, x1 = 9e-07	0.0986
x2 = 0.0002306, x1 = 1.8e-06	0.106
x2 = 0.0002358, x1 = 1.8e-07	0.0962
x2 = 0.0002358, x1 = 9e-07	0.0998
x2 = 0.0002358, x1 = 1.8e-06	0.107
x2 = 0.0002411, x1 = 1.8e-07	0.0973
x2 = 0.0002411, x1 = 9e-07	0.101
x2 = 0.0002411, x1 = 1.8e-06	0.108
